Measurements as given in publication PMC4674085, “Towards Prebiotic Catalytic Amyloids Using High Throughput Screening” (PLoS ONE, 2015).
Peptide text beside a SMILES is read from it.

Test: Plate reader 4NPA hydrolysis kinetics of purified peptide amyloids at pH 7.3
Format: biochemical
Conditions: for k cat/K M = k 2 from linear fit to v 0 = [E]0 k 2[S]: pH 7.3, plate reader A400, triplicate (36 without replicates)
Protocol: The reaction buffer consisted of the same buffer as the fibrillization buffer without ZnCl2 and with 1.33 mM 4NPA prepared from a 100 mM stock in CH3CN. The samples of the amyloid library were mixed 1:3 with the reaction buffer yielding 40 μM peptide and, when present 250 μM zinc(II). The absorbance measurements were performed in a BMG Pherastar platereader with a 400 nm band-pass filter (10 nm bandwidth) in 96-well Nunclon Delta surface plates or 384-well Greiner Bio-One non-bind black μclear plates.
The kinetics assays performed on the purified peptides were prepared similarly except that the peptide concentration was 20 μM in the reaction. Furthermore, the various substrate concentrations and replicate samples were randomly distributed over the plate to minimize systematic errors. Various 4NPA concentrations (i.e. 0.1 mM, 0.2 mM, 0.4 mM, 0.6 mM, 1.0 mM) were added from a 100 times stock so that the final CH3CN concentration was always 1%. The linear part of the hydrolysis activity was fit with an extinction coefficient of ε = 9700 M^-1cm^-1 and corrected for the background reaction rate of buffer alone (v bg = 5.0 × 10^-6 Ms^-1) to obtain the initial reaction rate v 0. The average of the initial reaction rates at each substrate concentration were then fit to the Michaelis-Menten type kinetics to obtain k cat, K M and k cat/K M always calculated per monomer peptide. The background reaction rate was obtained similarly using 5 replicates.

c1c[nH]cn1 [Imidazole, reference compound]
k cat/K M = k 2 from linear fit to v 0 = [E]0 k 2[S] (4NPA hydrolysis): 0.199 ± 0.008 M⁻¹ s⁻¹

CC(=O)N[C@@H](Cc1c[nH]cn1)C(=O)NCC(=O)N[C@@H](Cc1c[nH]cn1)C(N)=O [Peptide 36, Ac-HGH-CONH2] (Ac-His-Gly-His-NH2)
k cat/K M = k 2 from linear fit to v 0 = [E]0 k 2[S] (4NPA hydrolysis): 0.041 ± 0.005 M⁻¹ s⁻¹ | zinc(II) dependence of 4NPA hydrolysis activity (pH 7.3): not zinc(II)-dependent

Ac-IHIHIQI-NH2 [Peptide 34, Ac-IHIHIQI-CONH2, reference compound]
k cat/K M (4NPA hydrolysis, pH 7.3 HEPES with zinc(II), 20 μM purified peptide, 0.1-1.0 mM 4NPA, 1% CH3CN, A400, Michaelis-Menten fit, per monomer peptide, triplicate (duplicate for 8, 27, 34, 35)): 15.76 ± 0.96 M⁻¹ s⁻¹ | K M (4NPA hydrolysis, pH 7.3 HEPES with zinc(II), 20 μM purified peptide, Michaelis-Menten fit): 1570 ± 290 µM | k cat (4NPA hydrolysis, pH 7.3 HEPES with zinc(II), 20 μM purified peptide, Michaelis-Menten fit, per monomer peptide): 2.47±0.32 10^-2s^-1
